The values that follow come from US20090131356A1, “miR-15, miR-26, miR-31, miR-145, miR-147, miR-188, miR-215, miR-216, miR-331, mmu-miR-292-3P REGULATED GENES AND PATHWAYS AS TARGETS FOR THERAPEUTIC INTERVENTION” (ASURAGEN, INC., priority 2006, published 2009).

The series concerns Du145 human prostate cancer cells. The experiment in a line: Long-term growth curve with repeated electroporation, Du145. Particulars: 1.6 μM miRNA electroporated, repeated on days 7 and 14, day 20. Type of series: cell-based. As to the method:
The inventors assessed the therapeutic effect of hsa-miR-15a for prostate cancer by using the Du145 human prostate cancer cell line, derived from a brain metastasis (Stone et al., 1978). The inventors conducted growth curve experiments in the presence of miRNA for up to 20 days. Since in vitro transfections of naked interfering RNAs, such as synthetic miRNA, are transient by nature and compromised by the dilution of the miRNA during ongoing cell divisions, miRNA was administered at multiple time points (Bartlett et al., 2006; Bartlett et al., 2007). To accommodate miRNA delivery into a large quantity of cells, the inventors employed the electroporation method for delivery of hsa-miR-15a or negative control miRNA into Du145 human prostate cancer cells. Briefly, 0.5×10^6 Du145 cells were electroporated with 1.6 μM hsa-miR-15a or negative control using the BioRad Gene Pulser Xcell™ instrument (BioRad Laboratories Inc., Hercules, Calif., USA), seeded and propagated in regular growth medium. Experiments were carried out in triplicates. When the control cells reached confluence (days 7 and 14), cells were harvested, counted and electroporated again with the respective miRNAs. To ensure similar treatment of both conditions as well as to accommodate exponential growth, the cell numbers used for the second and third electroporation were titrated down to the lowest count. The population doubling was calculated from these electroporation events using the formula PD=ln(Nf/N0)/ln2 and adjusting for the fact that approximately 72% of newly seeded cells adhere to the plate. Cell counts were extrapolated and plotted on a linear scale (FIG. 10). Arrows represent electroporation days. Standard deviations are included in the graphs.
To evaluate the therapeutic activity of hsa-miR-147 over an extended period of time, the inventors conducted growth curve experiments in the presence of miRNA for up to 21 days. Since in vitro transfections of naked interfering RNAs, such as synthetic miRNA, are transient by nature and compromised by the dilution of the oligo during ongoing cell divisions, miRNA was administered at multiple time points (Bartlett et al., 2006; Bartlett et al., 2007). To accommodate miRNA delivery into a large quantity of cells, the inventors employed the electroporation method to delivery hsa-miR-147 or negative control miRNA into PC3 and Du145 human prostate cancer cells. […] When the control cells reached confluence (days 7 and 14), cells were harvested, counted and electroporated again with the respective miRNAs. […] The population doubling was calculated from these electroporation events using the formula PD=ln(Nf/N0)/ln2 and adjusting for the fact that approximately 72% of newly seeded cells adhere to the plate. […]

Turning to “hsa-miR-15a: Synthetic pre-miR-15a (Ambion); mature sequence UAGCAGCACAUAAUGGUUUGUG, MIMAT0000068, SEQ ID NO:1 (synthetic pre-miR (Ambion), chemistry not given here; listed as Homo sapiens)”, the “cells relative to cells electroporated with negative control miRNA” value was 11.8%. Also, the “inhibition of Du145 cell growth” value (relative to proliferation of control cells (100%)) worked out at 88.2%.
